Data: ChEMBL document CHEMBL1201862, “PubChem BioAssay data set” (2004)
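A five-concentration, 48-hour dose response in 96-well plates underlies each endpoint, interpolated linearly between surrounding concentrations. At the GI50, growth is halved.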 Active and inactive are the calls of the source. Rule as the data show it: active = GI50 up to about 1.1 µM and inactive = higher.

Tests used:
Assay in all cases: NCI-60 cell line screen, 48 h
[1] = test system: CCRF-CEM
[2] = test system: MOLT-4
[3] = test system: Malme-3M
[4] = test system: NCI-H226
[5] = test system: NCI-H460
[6] = test system: OVCAR-3
[7] = test system: OVCAR-4
[8] = test system: SF-268
[9] = test system: SK-MEL-5
[10] = test system: SNB-75
[11] = test system: UACC-257
[12] = test system: UACC-62
[13] = test system: OVCAR-5
[14] = test system: RPMI-8226
[15] = test system: U-251

| Compound | GI50 [1] | GI50 [2] | GI50 [3] | GI50 [4] | GI50 [5] | GI50 [6] | GI50 [7] | GI50 [8] | GI50 [9] | GI50 [10] | GI50 [11] | GI50 [12] | GI50 [13] | GI50 [14] | GI50 [15] |
| --- | --- | --- | --- | --- | --- | --- | --- | --- | --- | --- | --- | --- | --- | --- | --- |
| COC(=O)C(=O)C(C(=O)C(=O)Nc1cc([N+](=O)[O-])ccc1C#N)c1nc2ccccc2nc1O (stereo not drawn) | > 100 µM (inactive) | > 100 µM (inactive) | > 100 µM (inactive) | > 100 µM (inactive) | > 100 µM (inactive) | > 100 µM (inactive) | > 100 µM (inactive) | > 100 µM (inactive) | > 100 µM (inactive) | > 100 µM (inactive) | > 100 µM (inactive) | > 100 µM (inactive) |  |  |  |
| NC(=S)N/N=C1\C(=O)N(CCc2ccccc2)C(=O)C1C(=O)NCCc1ccccc1 (stereo not drawn) |  |  | > 100 µM (inactive) | > 100 µM (inactive) | > 100 µM (inactive) | > 100 µM (inactive) | > 100 µM (inactive) | > 100 µM (inactive) | > 100 µM (inactive) | 20.7 µM (inactive) | > 100 µM (inactive) | > 100 µM (inactive) | > 100 µM (inactive) | > 100 µM (inactive) | > 100 µM (inactive) |
| COC(=O)c1c(N)n[nH]c1N | > 100 µM (inactive) | > 100 µM (inactive) |  |  | > 100 µM (inactive) | > 100 µM (inactive) | > 100 µM (inactive) | > 100 µM (inactive) | > 100 µM (inactive) | > 100 µM (inactive) | > 100 µM (inactive) | 77.6 µM (inactive) |  | > 100 µM (inactive) | > 100 µM (inactive) |
| Cc1ccc(/C=C2\CCCCC2=O)cc1 | 28.1 µM (inactive) | 15.8 µM (inactive) |  |  | 80.9 µM (inactive) | > 100 µM (inactive) | 33.6 µM (inactive) | > 100 µM (inactive) | 91.6 µM (inactive) | 29.6 µM (inactive) |  | > 100 µM (inactive) |  |  | > 100 µM (inactive) |
| CC(CCc1ccc2c(c1)c(N)c1ccc(N)cc1[n+]2[O-])CC(C)(C)C (stereo not drawn) | 0.542 µM (active) | 1.09 µM (active) | 1.87 µM (inactive) | 1.85 µM (inactive) | 0.597 µM (active) | 1.73 µM (inactive) | 2.05 µM (inactive) | 2.2 µM (inactive) | 1.65 µM (inactive) | 2.07 µM (inactive) | 1.99 µM (inactive) | 1.45 µM (inactive) | 1.48 µM (inactive) | 1.92 µM (inactive) | 1.38 µM (inactive) |
| O=c1cc(CO)oc2c3c(cc(O)c12)OCC(COC1OC(CO)C(O)C(O)C1O)=CC3 (stereo not drawn) | > 100 µM (inactive) | > 100 µM (inactive) |  | > 100 µM (inactive) | > 100 µM (inactive) | > 100 µM (inactive) | > 100 µM (inactive) | > 100 µM (inactive) | > 100 µM (inactive) | > 100 µM (inactive) | > 100 µM (inactive) | > 100 µM (inactive) | > 100 µM (inactive) | > 100 µM (inactive) | > 100 µM (inactive) |
| CN(CC1NCCCC1O)C12CC3CC(CC(C3)C1)C2 (stereo not drawn) | > 100 µM (inactive) | > 100 µM (inactive) | > 100 µM (inactive) | > 100 µM (inactive) | > 100 µM (inactive) | > 100 µM (inactive) | > 100 µM (inactive) | > 100 µM (inactive) |  |  | > 100 µM (inactive) | > 100 µM (inactive) | > 100 µM (inactive) | > 100 µM (inactive) | > 100 µM (inactive) |
| CC1=C(C(=O)Nc2ccccc2)C(c2ccc(C(C)C)cc2)C(C(=O)Nc2ccccc2)=C(C)N1 | 13.3 µM (inactive) | 4.86 µM (inactive) | 15.5 µM (inactive) | 21.3 µM (inactive) | 18.9 µM (inactive) | 18.2 µM (inactive) | 28.5 µM (inactive) | 22.3 µM (inactive) | 12.9 µM (inactive) | 18.7 µM (inactive) |  | 13.6 µM (inactive) | 17.3 µM (inactive) | 6.71 µM (inactive) | 16 µM (inactive) |
| CCc1ccccc1NC(=O)CC1NC(=O)CS1 (stereo not drawn) | > 100 µM (inactive) | > 100 µM (inactive) | 55.2 µM (inactive) | > 100 µM (inactive) | > 100 µM (inactive) | > 100 µM (inactive) | > 100 µM (inactive) | > 100 µM (inactive) | > 100 µM (inactive) | 37.5 µM (inactive) | > 100 µM (inactive) | > 100 µM (inactive) | > 100 µM (inactive) | > 100 µM (inactive) | > 100 µM (inactive) |
| CCCOP1(=O)C=C(C)C(Cl)=C(C)C1 (stereo not drawn) | 15 µM (inactive) | 17.6 µM (inactive) |  | 20.9 µM (inactive) | 31.2 µM (inactive) | 25.2 µM (inactive) | 26.9 µM (inactive) | 14.6 µM (inactive) | 18.7 µM (inactive) | 22.6 µM (inactive) | 17.7 µM (inactive) | 15 µM (inactive) | 29.8 µM (inactive) | 12 µM (inactive) | 23.2 µM (inactive) |
| COc1cc2c(cc1O)C1C(O)C(O)C=C3CCN(C2)C31 (stereo not drawn) | 3.65 µM (inactive) | 3.15 µM (inactive) | 0.587 µM (active) | 2.55 µM (inactive) | 1.83 µM (inactive) | 2.67 µM (inactive) | 1.38 µM (inactive) | 2.2 µM (inactive) | 1.46 µM (inactive) | 2.65 µM (inactive) | 2.67 µM (inactive) | 1.69 µM (inactive) | 4.39 µM (inactive) | 3.58 µM (inactive) | 2.98 µM (inactive) |
| Cc1c2n(c(=O)[nH]c1=O)C1OC(CO)C(N=[N+]=[N-])C1O2 (stereo not drawn) | > 100 µM (inactive) | > 100 µM (inactive) |  | > 100 µM (inactive) | > 100 µM (inactive) | > 100 µM (inactive) | > 100 µM (inactive) | > 100 µM (inactive) | > 100 µM (inactive) | > 100 µM (inactive) | > 100 µM (inactive) | > 100 µM (inactive) |  | > 100 µM (inactive) | > 100 µM (inactive) |
| OCCNCCOc1ccc(/C(=C(/Cl)c2ccccc2)c2ccccc2)cc1 | 1.92 µM (inactive) | 1.69 µM (inactive) | 0.246 µM (active) | 21.6 µM (inactive) | 3.4 µM (inactive) | 12.1 µM (inactive) | 16.5 µM (inactive) |  | 6.25 µM (inactive) | 2.37 µM (inactive) | 2.21 µM (inactive) | 12.5 µM (inactive) | 15.1 µM (inactive) | 4.42 µM (inactive) | 8.43 µM (inactive) |
| C[C@]12CC[C@H](O)CC1CCC[C@@H]2O (stereo partly drawn) | > 100 µM (inactive) | > 100 µM (inactive) | > 100 µM (inactive) |  | > 100 µM (inactive) | > 100 µM (inactive) | > 100 µM (inactive) | > 100 µM (inactive) | > 100 µM (inactive) | > 100 µM (inactive) | > 100 µM (inactive) | > 100 µM (inactive) |  | > 100 µM (inactive) | > 100 µM (inactive) |
| CC(C)N(CCn1c2c3ccccc3ccc2c2oc(=O)c3ccccc3c21)C(C)C | > 100 µM (inactive) | > 100 µM (inactive) | > 100 µM (inactive) | > 100 µM (inactive) | > 100 µM (inactive) | > 100 µM (inactive) | > 100 µM (inactive) | > 69.7 µM (inactive) |  | 25.2 µM (inactive) | > 54.8 µM (inactive) | > 100 µM (inactive) | > 100 µM (inactive) | > 100 µM (inactive) | > 86.9 µM (inactive) |
| CCO/C=C1\N=C(c2ccc(Cl)c(Cl)c2)OC1=O | > 100 µM (inactive) | > 100 µM (inactive) | > 100 µM (inactive) | 30.5 µM (inactive) | > 100 µM (inactive) | > 100 µM (inactive) | > 100 µM (inactive) | > 100 µM (inactive) | > 100 µM (inactive) | 52.1 µM (inactive) | > 100 µM (inactive) | > 100 µM (inactive) | > 100 µM (inactive) | > 100 µM (inactive) |  |
| O=c1c2ccccc2c2nc3ccccc3nc2n1C1CCCCC1 |  | > 100 µM (inactive) | > 100 µM (inactive) | > 100 µM (inactive) |  | > 100 µM (inactive) | 32.9 µM (inactive) | > 100 µM (inactive) | > 100 µM (inactive) | 51.9 µM (inactive) | > 100 µM (inactive) | > 100 µM (inactive) | > 100 µM (inactive) | > 100 µM (inactive) | > 100 µM (inactive) |
| CCOC(=O)CN(c1ccccc1)c1nc(=[N+](C)C)ss1 | 0.979 µM (active) | 1.77 µM (inactive) | 21.2 µM (inactive) | 23.8 µM (inactive) |  | 0.284 µM (active) | 17.7 µM (inactive) | 45.2 µM (inactive) |  | 29 µM (inactive) | 24.3 µM (inactive) | 26.9 µM (inactive) |  | 1.19 µM (inactive) | 17.9 µM (inactive) |
| c1ccc(C(c2ccccc2)c2ccccn2)cc1 | > 100 µM (inactive) |  | > 100 µM (inactive) | > 100 µM (inactive) | > 100 µM (inactive) | > 100 µM (inactive) | > 100 µM (inactive) | > 100 µM (inactive) | > 100 µM (inactive) | 52.5 µM (inactive) | > 100 µM (inactive) | > 100 µM (inactive) | > 100 µM (inactive) | 66.1 µM (inactive) | > 100 µM (inactive) |
| c1ccc2c(c1)[nH]c1c[nH]c3c4cccnc4nc-3c12 | 24.7 µM (inactive) | 24.4 µM (inactive) | 25.6 µM (inactive) | 25.2 µM (inactive) | 21.5 µM (inactive) | 17.1 µM (inactive) | 18.2 µM (inactive) | 19.7 µM (inactive) | 19.4 µM (inactive) | 18.2 µM (inactive) | 23.9 µM (inactive) | 15.1 µM (inactive) | 20.3 µM (inactive) | 25.3 µM (inactive) |  |
